Assays:
rat VPA model of autism [1] = assay: Juvenile social play behaviour (P30) in the in utero valproic acid (VPA) rat model of autism; type: in vivo; parameters: key to play behaviour: +: improvement; Ø: no change
Method: Time-mated female Wistar rats were administered a single dose of valproic acid (VPA, 600 mg/kg, i.p.) on gestational day 12.5 (VPA/VEH). To determine behavioural deficits in the VPA autism model, male offspring were tested at juvenile (postnatal day 30) for the presence of abnormal behaviours associated with autism e.g., decreased sociability and increased irritability.
(§1) In the first study, a sub-chronic 8-day dosing schedule was employed with the test compound CBD administered alone (10, 30 and 60 mg/kg, p.o. VPA/CBD; dose volume 5 ml/kg). Control animals were administered sterile saline (0.9% w/v, i.p.) in utero and the vehicle control (ethanol: Kolliphor HS-15:0.9% saline (1:1:18, v/v/v) p.o. VEH/VEH). The test compound and vehicle control were administered to the animals once daily for 7 days prior to, and once again on each day of behavioural assessment, 60 minutes prior to test which consisted of a battery of behavioural paradigms: P30 social play and bottle brush test, P31-32 open field exploratory behaviour. A reference positive control, the atypical antipsychotic risperidone (0.125 mg/kg, i.p., once per day for 8 days prior to and for duration of behavioural testing), was included in study one for comparison. Subsequent to behavioural analysis the effect of CBD on gastrointestinal permeability was evaluated four hours following oral administration of fluorescein isothiocyanate-labelled dextran measured in plasma on postnatal day 33. On postnatal day 34, 60 minutes post a final treatment with the test agents, animals were humanely euthanised and samples collected to evaluate inflammatory biomarkers, gastrointestinal function and histology. 5 In the second study, the sub-optimal dose of CBD (30 mg/kg, p.o.) was evaluated in combination with administration of THC at increasing concentration (0.75, 1.5 and 3 mg/kg, p.o. VPA/CBD+THC). Comparison was made to CBD administered alone at the sub-optimal and effective doses (30 and 60 mg/kg, p.o.) and to vehicle controls as per study one. Behavioural and gastrointestinal readouts were examined as per study one with terminal samples collected on the final day of the experiment.
Time-mated female Wistar Han Rcc rats (Envigo, UK) were administered a single dose of valproic acid (VPA, Sigma Aldrich, Ireland, lot no. MKCB2699V, 600 mg/kg, i.p.) or vehicle (0.9% saline i.p.) on gestational day 12.5. Confirmation of the VPA induced developmental deficit was rapidly achieved by examination of characteristic “tail kinks” observed in all of the juvenile animals exposed to VPA. Litters were normalised to 8 animals and to male offspring at postnatal day 3. Male pups were cross fostered to make up the uniform litter size of eight. Male offspring were housed as per standard laboratory conditions until time of experimental use. Vehicle-treated control animals were employed as controls, with animals for both parts of the study prepared together. At weaning, animals were allocated into test groups according to a balanced design based on weight and litter to distribute these equally across each treatment group. Animals were introduced to the experimental holding rooms prior to the commencement of the study, housed in groups of 4 during this period in soft bottomed cages with sawdust bedding material, with enrichment consisting of nesting material, cardboard tubes and Perspex internal shelter, and maintained at 22-24° C. on a standard 12-hour light/dark cycle (07.30-19.30), with food and water available ad libitum. All animals were examined and weighed daily during drug treatment and experimental protocols. All procedures were carried out by individuals retaining the appropriate authorisation from the Irish Government Health Products Regulatory Authority. Furthermore, the study protocol was approved by the Animal Research Ethics Committee of University College Dublin, Ireland. […]

rat VPA model of autism [2] = assay: Open field behaviour (P31-32): locomotor activity, centre crossing, circling, self-grooming in VPA rat model; type: in vivo; parameters: key to open field (spontaneous LMA on day 1) / open field (habituation LMA on day 2) / centre crossing / centre time / Circling / Grooming: +: improvement; Ø: no change
Method: as §1
Following eight days treatment with the test compound animals were scored for locomotor activity and exploratory behaviour in two 10-minute trials within an open field arena over two days, a protocol widely used at Berand and allows to distinguish between day 1 spontaneous locomotor activity and day 2 locomotor activity following habituation (pre-exposure to the arena on day 1). Each day the animals were placed into a […] black Perspex box with 30 cm side walls, under low light and monitored via remote video capture for spontaneous activity. Linked to Ethovision XT image analysis software these videos were analysed for total distance moved and number and duration of centre zone crossings as an indication of hyperactivity and anxiety-like behaviour. Manual scoring of the videos was conducted (blinded to treatment group) to determine frequency of circling behaviour (number of 360 degree turns) and duration of self-grooming (n=8).

[3] = cohort two, CBD 30 mg/kg, THC 0 mg/kg p.o.
[4] = cohort two, CBD 60 mg/kg, THC 0 mg/kg p.o.
[5] = study one, CBD 60 mg/kg, vs VPA/VEH
[6] = cohort one, risperidone 0.125 mg/kg i.p.
[7] = study one, risperidone 0.125 mg/kg
[8] = study one, risperidone 0.125 mg/kg i.p.

C=C(C)[C@@H]1CCC(C)=C[C@H]1c1c(O)cc(CCCCC)cc1O [CBD, cannabidiol]
significantly prevented: increase in locomotor activity (distance travelled), day one (rat VPA model of autism [2]; [5]) | increase in locomotor activity (distance travelled), day two (rat VPA model of autism [2]; [5]) | increase in circling, day one (rat VPA model of autism [2]; study two, CBD 30 mg/kg) | increase in circling, day one (rat VPA model of autism [2]; study two, CBD 60 mg/kg) | increase in locomotor activity (distance travelled), day one (rat VPA model of autism [2]; study two, CBD 60 mg/kg) | increase in locomotor activity (distance travelled), day two (rat VPA model of autism [2]; study two, CBD 60 mg/kg)
without effect: reduction in social play duration (rat VPA model of autism [1]; study two, CBD 30 mg/kg) | increase in circling and grooming behaviour, day one (rat VPA model of autism [2]; study one, CBD (10, 30 and 60 mg/kg)) | increase in circling behaviour, day 2 (rat VPA model of autism [2]; study two, CBD 30 mg/kg) | increase in locomotor activity (distance travelled), day one (rat VPA model of autism [2]; study two, CBD 30 mg/kg) | increase in locomotor activity (distance travelled), day two (rat VPA model of autism [2]; study two, CBD 30 mg/kg) | increase in self grooming, day 2 (rat VPA model of autism [2]; study two, CBD 30 mg/kg)
reversed: decrease in duration of mounting behaviour (rat VPA model of autism [1]; [5]) | decrease in duration of mounting behaviour (rat VPA model of autism [1]; study two, CBD 60 mg/kg) | increase in self grooming, day 2 (rat VPA model of autism [2]; study one, CBD 60 mg/kg) | increase in self grooming, day 2 (rat VPA model of autism [2]; study two, CBD 60 mg/kg)
significantly attenuated: latency to engage in mounting play behaviour (delay) (rat VPA model of autism [1]; study one, CBD 10 mg/kg, vs VPA/VEH) | latency to engage in mounting play behaviour (delay) (rat VPA model of autism [1]; study one, CBD 30 mg/kg, vs VPA/VEH) | latency to engage in mounting play behaviour (delay) (rat VPA model of autism [1]; [5]) | reduction in social play duration (rat VPA model of autism [1]; [5]) | reduction in social play duration (rat VPA model of autism [1]; study two, CBD 60 mg/kg, vs VPA/VEH) | increase in circling behaviour, day 2 (rat VPA model of autism [2]; study one, CBD 60 mg/kg) | increase in circling behaviour, day 2 (rat VPA model of autism [2]; study two, CBD 60 mg/kg)
+: play behaviour (rat VPA model of autism [1]; cohort one, CBD 60 mg/kg p.o.) | play behaviour (rat VPA model of autism [1]; [4]) | Circling (rat VPA model of autism [2]; cohort one, CBD 60 mg/kg p.o.) | Grooming (rat VPA model of autism [2]; cohort one, CBD 60 mg/kg p.o.) | open field (habituation LMA on day 2) (rat VPA model of autism [2]; cohort one, CBD 60 mg/kg p.o.) | open field (spontaneous LMA on day 1) (rat VPA model of autism [2]; cohort one, CBD 60 mg/kg p.o.) | Circling (rat VPA model of autism [2]; [3]) | Circling (rat VPA model of autism [2]; [4]) | Grooming (rat VPA model of autism [2]; [4]) | centre crossing (rat VPA model of autism [2]; [4]) | centre time (rat VPA model of autism [2]; [4]) | open field (habituation LMA on day 2) (rat VPA model of autism [2]; [4]) | open field (spontaneous LMA on day 1) (rat VPA model of autism [2]; [4])
Ø: play behaviour (rat VPA model of autism [1]; cohort one, CBD 10 mg/kg p.o.) | play behaviour (rat VPA model of autism [1]; cohort one, CBD 30 mg/kg p.o.) | play behaviour (rat VPA model of autism [1]; [3]) | Circling (rat VPA model of autism [2]; cohort one, CBD 10 mg/kg p.o.) | Grooming (rat VPA model of autism [2]; cohort one, CBD 10 mg/kg p.o.) | centre crossing (rat VPA model of autism [2]; cohort one, CBD 10 mg/kg p.o.) | centre time (rat VPA model of autism [2]; cohort one, CBD 10 mg/kg p.o.) | open field (habituation LMA on day 2) (rat VPA model of autism [2]; cohort one, CBD 10 mg/kg p.o.) | open field (spontaneous LMA on day 1) (rat VPA model of autism [2]; cohort one, CBD 10 mg/kg p.o.) | Circling (rat VPA model of autism [2]; cohort one, CBD 30 mg/kg p.o.) | Grooming (rat VPA model of autism [2]; cohort one, CBD 30 mg/kg p.o.) | centre crossing (rat VPA model of autism [2]; cohort one, CBD 30 mg/kg p.o.) | centre time (rat VPA model of autism [2]; cohort one, CBD 30 mg/kg p.o.) | open field (habituation LMA on day 2) (rat VPA model of autism [2]; cohort one, CBD 30 mg/kg p.o.) | open field (spontaneous LMA on day 1) (rat VPA model of autism [2]; cohort one, CBD 30 mg/kg p.o.) | centre crossing (rat VPA model of autism [2]; cohort one, CBD 60 mg/kg p.o.) | centre time (rat VPA model of autism [2]; cohort one, CBD 60 mg/kg p.o.) | Grooming (rat VPA model of autism [2]; [3]) | centre crossing (rat VPA model of autism [2]; [3]) | centre time (rat VPA model of autism [2]; [3]) | open field (habituation LMA on day 2) (rat VPA model of autism [2]; [3]) | open field (spontaneous LMA on day 1) (rat VPA model of autism [2]; [3])
X (X = no effect): Mount Duration (sec) (rat VPA model of autism [1]; study one, CBD 10 mg/kg) | Mount Frequency (rat VPA model of autism [1]; study one, CBD 10 mg/kg) | Social Play Duration (sec) (rat VPA model of autism [1]; study one, CBD 10 mg/kg) | Social Play Frequency (rat VPA model of autism [1]; study one, CBD 10 mg/kg) | Social Play Latency (sec) (rat VPA model of autism [1]; study one, CBD 10 mg/kg) | Mount Duration (sec) (rat VPA model of autism [1]; study one, CBD 30 mg/kg) | Mount Frequency (rat VPA model of autism [1]; study one, CBD 30 mg/kg) | Social Play Duration (sec) (rat VPA model of autism [1]; study one, CBD 30 mg/kg) | Social Play Frequency (rat VPA model of autism [1]; study one, CBD 30 mg/kg) | Social Play Latency (sec) (rat VPA model of autism [1]; study one, CBD 30 mg/kg) | Social Play Frequency (rat VPA model of autism [1]; study one, CBD 60 mg/kg) | Social Play Latency (sec) (rat VPA model of autism [1]; study one, CBD 60 mg/kg) | Mount Duration (sec) (rat VPA model of autism [1]; study two, CBD alone 30 mg/kg) | Mount Frequency (rat VPA model of autism [1]; study two, CBD alone 30 mg/kg) | Mount Latency (sec) (rat VPA model of autism [1]; study two, CBD alone 30 mg/kg) | Social Play Duration (sec) (rat VPA model of autism [1]; study two, CBD alone 30 mg/kg) | Social Play Frequency (rat VPA model of autism [1]; study two, CBD alone 30 mg/kg) | Social Play Latency (sec) (rat VPA model of autism [1]; study two, CBD alone 30 mg/kg) | Mount Frequency (rat VPA model of autism [1]; study two, CBD alone 60 mg/kg) | Mount Latency (sec) (rat VPA model of autism [1]; study two, CBD alone 60 mg/kg) | Social Play Frequency (rat VPA model of autism [1]; study two, CBD alone 60 mg/kg) | Social Play Latency (sec) (rat VPA model of autism [1]; study two, CBD alone 60 mg/kg)
ameliorated: decrease in frequency of mounting behaviour (rat VPA model of autism [1]; [5])

Cc1nc2n(c(=O)c1CCN1CCC(c3noc4cc(F)ccc34)CC1)CCCC2 [Risperidone, risperidone]
X (X = no effect): Mount Duration (sec) (rat VPA model of autism [1]; [7]) | Mount Frequency (rat VPA model of autism [1]; [7]) | Social Play Duration (sec) (rat VPA model of autism [1]; [7]) | Social Play Frequency (rat VPA model of autism [1]; [7]) | Social Play Latency (sec) (rat VPA model of autism [1]; [7])
did not reach significance: circling and self-grooming, day one or two (rat VPA model of autism [2]; [8])
Ø: play behaviour (rat VPA model of autism [1]; [6]) | Circling (rat VPA model of autism [2]; [6]) | Grooming (rat VPA model of autism [2]; [6]) | centre crossing (rat VPA model of autism [2]; [6]) | centre time (rat VPA model of autism [2]; [6])
without effect: any other measure of play or social interaction in juvenile animals (rat VPA model of autism [1]; risperidone 0.125 mg/kg)
significantly reduced: increased locomotor activity, day two (rat VPA model of autism [2]; [8]) | locomotor hyperactivity, day one (rat VPA model of autism [2]; [8])
+: open field (habituation LMA on day 2) (rat VPA model of autism [2]; [6]) | open field (spontaneous LMA on day 1) (rat VPA model of autism [2]; [6])

From patent publication US20260207632A1, “C[…] THERAPY” (KINGDOM THERAPEUTICS LIMITED, priority 2022, published 2026)
